Source: ChEMBL document CHEMBL1201862, “PubChem BioAssay data set” (2004)
One block for each molecule: values may come before it. Active and inactive are the calls of the source.

How the values were obtained:
[1] = Counterscreen for inhibitors of Trypanosoma brucei methionyl tRNA synthetase (MetRS): Luminescence-based cell-based high throughput dose response assay to identify compounds that are cytotoxic to Jurkat human T lymphocyte cells.; assay type: functional
[2] = molecular target: Nuclear receptor subfamily 5 group A member 2 (Homo sapiens, UniProt O00482); assay type: functional, cell-based;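 also: HEK293T cells transfected with LRH-1 and a StAR promoter luciferase reporter; potency for inhibitors that lower LRH-1 driven reporter light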
Nuclear receptor subfamily 5 group A member 2, sequence (O00482 whole entry): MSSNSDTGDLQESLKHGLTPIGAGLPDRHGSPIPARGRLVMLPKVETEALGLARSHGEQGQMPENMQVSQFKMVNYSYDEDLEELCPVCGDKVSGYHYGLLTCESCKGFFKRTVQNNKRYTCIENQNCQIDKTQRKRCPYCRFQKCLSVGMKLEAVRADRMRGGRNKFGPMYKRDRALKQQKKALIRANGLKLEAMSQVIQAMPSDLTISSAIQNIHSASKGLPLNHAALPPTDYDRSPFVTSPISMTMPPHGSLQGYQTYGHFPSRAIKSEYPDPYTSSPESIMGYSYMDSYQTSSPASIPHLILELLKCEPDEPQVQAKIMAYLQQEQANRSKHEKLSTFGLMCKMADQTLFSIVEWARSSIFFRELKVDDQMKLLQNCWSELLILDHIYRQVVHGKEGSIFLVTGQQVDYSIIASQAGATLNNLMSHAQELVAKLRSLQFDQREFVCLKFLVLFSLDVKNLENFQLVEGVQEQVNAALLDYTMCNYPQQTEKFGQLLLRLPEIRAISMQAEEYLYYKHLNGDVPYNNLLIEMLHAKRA

[3] = StAR promoter reporter inhibition counter-screen, dose response, counter-screen for LRH-1 inverse agonist project, cell-based, luminescence, luciferase reporter (AID 651969); assay type: functional
Steroidogenic factor 1 = Steroidogenic factor 1 (Homo sapiens, UniProt Q13285); experiment: Counterscreen for inverse agonists of the liver receptor homolog-1 (LRH-1; NR5A2): Luminescence-based cell-based high throughput dose response assay to identify inverse agonists of the Steroidogenic Factor 1 Nuclear Receptor (SF1; NR5A1).; assay type: functional
Steroidogenic factor 1, sequence (Q13285 whole entry): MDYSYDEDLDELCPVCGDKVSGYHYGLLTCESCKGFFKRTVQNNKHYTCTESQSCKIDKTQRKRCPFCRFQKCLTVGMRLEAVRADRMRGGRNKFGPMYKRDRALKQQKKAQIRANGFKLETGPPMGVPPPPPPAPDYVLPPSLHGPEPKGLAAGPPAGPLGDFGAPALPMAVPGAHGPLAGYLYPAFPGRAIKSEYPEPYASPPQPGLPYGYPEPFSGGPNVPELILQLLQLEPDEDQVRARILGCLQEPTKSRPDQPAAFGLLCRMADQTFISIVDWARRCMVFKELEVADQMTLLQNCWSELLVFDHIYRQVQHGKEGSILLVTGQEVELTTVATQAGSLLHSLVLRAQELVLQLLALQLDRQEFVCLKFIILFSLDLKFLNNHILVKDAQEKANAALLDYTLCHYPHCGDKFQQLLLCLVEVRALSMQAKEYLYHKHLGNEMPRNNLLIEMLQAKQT

Vero = experiment: Vero cell toxicity, dose response, cytotoxicity control, plate reader, cherry-pick samples (AID 687020); assay type: functional, cell-based; details: Chlorocebus sabaeus
[4] = molecular target: T1, Mitochondrial peptide methionine sulfoxide reductase (Bos taurus, UniProt P54149); experiment: Absorbance-based biochemical high throughput dose response assay for activators of Methionine sulfoxide reductase A (MsrA).; assay type: functional
T1 sequence (P54149 whole entry): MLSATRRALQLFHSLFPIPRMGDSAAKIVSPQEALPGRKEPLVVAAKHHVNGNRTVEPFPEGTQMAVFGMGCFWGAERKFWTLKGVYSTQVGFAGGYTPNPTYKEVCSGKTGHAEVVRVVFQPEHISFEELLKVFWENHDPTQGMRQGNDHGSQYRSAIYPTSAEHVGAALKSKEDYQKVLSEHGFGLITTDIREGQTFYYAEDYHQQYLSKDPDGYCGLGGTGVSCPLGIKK

Caspase-3 = molecular target: T2, Caspase-3 (Homo sapiens, UniProt P42574); assay type: functional;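 also: Dose-response selectivity test against caspase-3 for candidate inhibitors of sentrin-specific proteases (SENPs)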
T2 sequence (P42574 whole entry): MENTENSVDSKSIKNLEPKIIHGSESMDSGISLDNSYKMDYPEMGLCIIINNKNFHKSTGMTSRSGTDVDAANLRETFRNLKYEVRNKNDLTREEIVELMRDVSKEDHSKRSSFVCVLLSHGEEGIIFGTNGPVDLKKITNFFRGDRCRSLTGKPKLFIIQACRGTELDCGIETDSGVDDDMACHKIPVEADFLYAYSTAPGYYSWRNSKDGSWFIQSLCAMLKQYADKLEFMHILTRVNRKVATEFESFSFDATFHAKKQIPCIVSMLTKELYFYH

[5] = molecular target: T3, Sentrin-specific protease 8 (Homo sapiens, UniProt Q96LD8); assay type: functional;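 also: luminescence read-out of SENP8 inhibition, dose-response confirmation following an ultra-high-throughput screen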
T3 sequence (Q96LD8 whole entry): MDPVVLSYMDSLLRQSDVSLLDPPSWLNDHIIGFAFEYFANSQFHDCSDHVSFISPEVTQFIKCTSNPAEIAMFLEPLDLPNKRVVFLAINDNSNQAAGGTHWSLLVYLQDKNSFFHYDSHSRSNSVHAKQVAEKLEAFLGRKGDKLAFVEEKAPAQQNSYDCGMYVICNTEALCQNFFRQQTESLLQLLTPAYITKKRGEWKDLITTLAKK

[6] = molecular target: T4, Tyrosyl-DNA phosphodiesterase 2 (Homo sapiens, UniProt O95551); experiment: human TDP2 enzyme inhibitors, dose response, biochemical, epi absorbance, IC50 (AID 743297)
T4 sequence (O95551 whole entry): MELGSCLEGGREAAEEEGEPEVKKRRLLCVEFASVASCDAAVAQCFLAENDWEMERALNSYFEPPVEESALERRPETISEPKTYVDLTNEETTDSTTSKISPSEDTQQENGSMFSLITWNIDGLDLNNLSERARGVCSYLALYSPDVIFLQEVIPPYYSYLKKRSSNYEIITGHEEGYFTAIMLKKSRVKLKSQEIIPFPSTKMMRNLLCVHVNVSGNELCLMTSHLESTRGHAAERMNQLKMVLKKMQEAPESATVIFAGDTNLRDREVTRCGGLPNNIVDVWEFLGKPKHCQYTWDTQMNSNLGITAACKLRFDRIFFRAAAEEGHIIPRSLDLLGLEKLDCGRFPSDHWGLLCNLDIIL

[7] = molecular target: T5, Sentrin-specific protease 7 (Homo sapiens, UniProt Q9BQF6); assay type: functional;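 also: Luminescence-based dose-response confirmation of ultra-high-throughput screening hits, measuring inhibition of SENP7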
T5 sequence (Q9BQF6 whole entry): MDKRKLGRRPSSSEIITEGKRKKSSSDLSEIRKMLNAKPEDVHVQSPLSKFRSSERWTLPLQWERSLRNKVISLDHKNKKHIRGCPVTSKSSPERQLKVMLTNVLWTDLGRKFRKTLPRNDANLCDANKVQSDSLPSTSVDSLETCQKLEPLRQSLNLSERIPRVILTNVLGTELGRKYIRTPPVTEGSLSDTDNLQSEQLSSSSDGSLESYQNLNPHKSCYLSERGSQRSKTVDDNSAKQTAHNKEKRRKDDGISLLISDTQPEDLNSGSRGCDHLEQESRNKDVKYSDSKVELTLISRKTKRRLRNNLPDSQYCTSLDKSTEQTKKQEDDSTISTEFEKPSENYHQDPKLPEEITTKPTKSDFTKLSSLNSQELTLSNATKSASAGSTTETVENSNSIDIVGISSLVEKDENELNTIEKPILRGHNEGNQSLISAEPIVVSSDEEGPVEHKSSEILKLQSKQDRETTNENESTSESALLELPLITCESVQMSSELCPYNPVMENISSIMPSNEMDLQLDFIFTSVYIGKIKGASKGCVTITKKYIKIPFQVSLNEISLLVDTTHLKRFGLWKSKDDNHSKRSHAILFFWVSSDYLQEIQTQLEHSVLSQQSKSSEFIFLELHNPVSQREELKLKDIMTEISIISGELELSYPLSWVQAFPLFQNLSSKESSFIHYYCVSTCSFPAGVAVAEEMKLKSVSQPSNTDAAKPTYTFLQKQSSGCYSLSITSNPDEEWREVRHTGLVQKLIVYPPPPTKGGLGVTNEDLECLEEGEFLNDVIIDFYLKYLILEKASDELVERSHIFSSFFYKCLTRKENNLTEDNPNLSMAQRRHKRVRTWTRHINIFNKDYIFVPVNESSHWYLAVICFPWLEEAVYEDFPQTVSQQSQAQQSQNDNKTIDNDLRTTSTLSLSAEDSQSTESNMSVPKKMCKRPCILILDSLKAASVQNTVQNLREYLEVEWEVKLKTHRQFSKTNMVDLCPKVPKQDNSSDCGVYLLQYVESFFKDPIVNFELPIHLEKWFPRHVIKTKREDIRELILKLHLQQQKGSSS

Caspase-6 = molecular target: T6, Caspase-6 (Homo sapiens, UniProt P55212); experiment: human caspase-6 inhibitors, dose response, biochemical, VEID-R110 fluorescence, cherry-pick (AID 720632)
T6 sequence (P55212 whole entry): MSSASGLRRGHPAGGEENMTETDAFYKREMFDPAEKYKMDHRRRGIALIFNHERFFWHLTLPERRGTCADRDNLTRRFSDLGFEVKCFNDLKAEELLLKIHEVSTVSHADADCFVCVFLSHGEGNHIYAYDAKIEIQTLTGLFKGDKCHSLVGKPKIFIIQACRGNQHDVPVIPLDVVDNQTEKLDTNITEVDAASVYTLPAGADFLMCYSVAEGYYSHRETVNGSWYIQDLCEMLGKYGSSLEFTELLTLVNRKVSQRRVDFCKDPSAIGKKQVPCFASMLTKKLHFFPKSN

[8] = molecular target: T7, Sentrin-specific protease 6 (Homo sapiens, UniProt Q9GZR1); assay type: functional;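 also: Luminescence-based dose-response confirmatory assay of SENP6 inhibition, following up an ultra-high-throughput screen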
T7 sequence (Q9GZR1 whole entry): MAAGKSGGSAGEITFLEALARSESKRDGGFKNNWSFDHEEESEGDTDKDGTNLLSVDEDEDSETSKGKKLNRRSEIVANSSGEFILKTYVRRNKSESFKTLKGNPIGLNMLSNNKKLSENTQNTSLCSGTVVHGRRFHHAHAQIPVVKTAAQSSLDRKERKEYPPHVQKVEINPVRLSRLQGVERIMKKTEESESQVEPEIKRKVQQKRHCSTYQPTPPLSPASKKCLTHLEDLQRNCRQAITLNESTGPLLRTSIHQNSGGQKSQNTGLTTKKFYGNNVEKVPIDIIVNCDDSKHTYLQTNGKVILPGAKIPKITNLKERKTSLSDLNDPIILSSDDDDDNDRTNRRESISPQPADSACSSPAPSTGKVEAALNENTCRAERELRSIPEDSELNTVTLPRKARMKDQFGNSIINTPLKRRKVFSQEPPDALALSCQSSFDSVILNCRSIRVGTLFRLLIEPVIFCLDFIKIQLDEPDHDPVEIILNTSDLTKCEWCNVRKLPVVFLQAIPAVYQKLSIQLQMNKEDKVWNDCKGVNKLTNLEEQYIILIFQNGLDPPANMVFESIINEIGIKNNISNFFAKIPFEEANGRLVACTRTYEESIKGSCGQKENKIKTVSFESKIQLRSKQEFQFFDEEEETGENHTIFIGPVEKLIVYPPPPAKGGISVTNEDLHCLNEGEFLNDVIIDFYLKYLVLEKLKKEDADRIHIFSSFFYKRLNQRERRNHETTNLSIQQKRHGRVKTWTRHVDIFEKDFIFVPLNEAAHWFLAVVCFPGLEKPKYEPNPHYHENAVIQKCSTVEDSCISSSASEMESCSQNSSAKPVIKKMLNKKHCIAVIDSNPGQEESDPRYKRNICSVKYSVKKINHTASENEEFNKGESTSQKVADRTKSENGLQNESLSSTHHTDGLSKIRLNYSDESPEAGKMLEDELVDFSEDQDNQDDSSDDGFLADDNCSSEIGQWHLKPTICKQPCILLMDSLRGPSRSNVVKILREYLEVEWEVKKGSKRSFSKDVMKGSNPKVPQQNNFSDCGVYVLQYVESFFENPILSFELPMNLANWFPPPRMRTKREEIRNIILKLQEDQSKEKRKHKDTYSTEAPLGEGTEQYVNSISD

[9] = molecular target: T8, Methionyl-tRNA synthetase, putative (Trypanosoma brucei brucei, UniProt Q38C91); assay type: functional, Trypanosoma brucei brucei strain 927/4 GUTat10.1
T8 sequence (Q38C91 whole entry): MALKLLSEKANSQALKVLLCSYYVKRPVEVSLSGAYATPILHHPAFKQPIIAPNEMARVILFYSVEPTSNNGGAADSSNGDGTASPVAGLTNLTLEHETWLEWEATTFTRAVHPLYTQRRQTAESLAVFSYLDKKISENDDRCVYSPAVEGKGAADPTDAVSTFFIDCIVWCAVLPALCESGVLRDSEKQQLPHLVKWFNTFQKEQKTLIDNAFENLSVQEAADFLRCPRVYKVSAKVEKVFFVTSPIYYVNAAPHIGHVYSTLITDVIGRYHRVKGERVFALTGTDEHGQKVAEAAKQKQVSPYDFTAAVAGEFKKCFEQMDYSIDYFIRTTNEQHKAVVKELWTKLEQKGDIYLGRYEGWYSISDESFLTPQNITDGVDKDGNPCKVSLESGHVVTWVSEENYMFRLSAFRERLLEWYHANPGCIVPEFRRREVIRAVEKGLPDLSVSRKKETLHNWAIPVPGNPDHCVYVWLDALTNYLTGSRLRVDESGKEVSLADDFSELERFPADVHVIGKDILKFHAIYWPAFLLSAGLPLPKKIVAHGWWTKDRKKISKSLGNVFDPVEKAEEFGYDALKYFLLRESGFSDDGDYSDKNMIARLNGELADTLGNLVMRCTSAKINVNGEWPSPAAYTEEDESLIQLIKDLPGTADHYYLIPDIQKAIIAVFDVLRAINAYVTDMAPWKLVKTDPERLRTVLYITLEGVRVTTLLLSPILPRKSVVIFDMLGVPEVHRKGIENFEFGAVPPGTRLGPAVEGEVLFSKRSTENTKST

[10] = molecular target: T8, Methionyl-tRNA synthetase, putative; assay type: functional, Trypanosoma brucei brucei strain 927/4 GUTat10.1; remark: listed apart in the source
[11] = molecular target: T9, Small ubiquitin-related modifier 1 (Homo sapiens, UniProt P63165); experiment: inhibitors of SUMO1 peptide binding, dose response, biochemical, fluorescence polarization, uHTS hits (AID 624382); assay type: functional; details: read-out: IC50_Mean
T9 sequence (P63165 whole entry, the tested form may be a part): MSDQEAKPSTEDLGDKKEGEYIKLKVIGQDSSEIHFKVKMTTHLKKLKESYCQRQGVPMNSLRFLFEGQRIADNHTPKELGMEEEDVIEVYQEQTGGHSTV

[12] = molecular target: T10, Carboxy-terminal domain RNA polymerase II polypeptide A small phosphatase 1 (Homo sapiens, UniProt Q9GZU7); experiment: inhibitors of CTDSP1, concentration-response testing, biochemical assay, absorbance-based, actives from ultra-high-throughput screening (AID 540297); assay type: functional
T10 sequence (Q9GZU7 whole entry): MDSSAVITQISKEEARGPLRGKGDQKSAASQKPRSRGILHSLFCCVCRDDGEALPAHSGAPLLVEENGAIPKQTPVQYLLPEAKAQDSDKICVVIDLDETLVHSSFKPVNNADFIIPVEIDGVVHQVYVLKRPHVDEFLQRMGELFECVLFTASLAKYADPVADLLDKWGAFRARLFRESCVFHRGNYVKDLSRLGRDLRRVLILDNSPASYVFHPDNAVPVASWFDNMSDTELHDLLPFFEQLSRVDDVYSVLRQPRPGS

[13] = molecular target: T9, Small ubiquitin-related modifier 1; experiment: inhibitors of SUMO1 partner interactions, dose response, biochemical, FRET (AID 624383); assay type: functional; details: read-out: IC50_Mean

Structure (SMILES): O=C(CSc1nc2ccc[nH]c-2n1)Nc1ccc2c(c1)OCO2
IC50 [1]: 83.3 µM (inactive)

Structure (SMILES): COc1ccc(S(=O)(=O)Nc2ccc3c(c2)n(C)c(=O)n3C)cc1F
IC50 [2]: 8.04 µM (active)
IC50 [3]: 34.5 µM (inactive)
IC50 (Steroidogenic factor 1): 9.64 µM (active)

Structure (SMILES): COCC(=O)NC1CCN(CC(=O)Nc2ccc(OC)cc2[N+](=O)[O-])CC1
IC50 [2]: 3.9 µM (active)
IC50 [3]: 35.9 µM (inactive)
IC50 (Steroidogenic factor 1): 1.37 µM (active)

Structure (SMILES): COc1ccc(N2CCN(c3cc(C(=O)NC4CCCCC4)ncn3)CC2)cc1OC
AC50 (Vero): 29.7 µM (active)

EC50 [4]: 22.9 µM (inactive)
IC50 (Caspase-3): 13.7 µM (active)
IC50 [6]: 85.5 µM (inactive)
IC50 [7]: 8.12 µM (active)
AC50 (Caspase-6): 8.44 µM (active)
IC50 [8]: 6.5 µM (active)
Structure (SMILES): CC1CCCC(NC(=O)COC(=O)c2ccc([N+](=O)[O-])s2)C1C (centres undefined)
IC50 [5]: 5.63 µM (active)

Structure (SMILES): O=C(NCc1nc2ccccc2[nH]1)C1=C[C@H](C2CCCCC2)C[C@H](OCCCCO)O1
IC50 [9]: 3.14 µM (active)
IC50 [1]: 28.8 µM (inactive)
IC50 [10]: 5.64 µM (active)

IC50 [9]: 30.3 µM (inactive)
IC50 [10]: 81.6 µM (inactive)
Structure (SMILES): O=C(CSc1nc2ncccc2[nH]1)Nc1ccc2c(c1)OCO2

Structure (SMILES): COc1ccc(Nc2nnc(-c3ccncc3)s2)cc1Cl
IC50 [11]: > 66.6 µM (inactive)
IC50 [12]: 4.85 µM (active)
IC50 [13]: 6.3 µM (active)

Structure (SMILES): CCN1CCN(S(=O)(=O)c2ccc(Cl)c(C(=O)N(C)CCOc3ccc(Cl)cc3)c2)CC1
AC50 (Vero): 21.1 µM (active)
